{"source": "PubChem BioAssay (NCI)", "assay_in_all_cases": "inhibition of tumour cell growth, NCI panel, 48 h", "key": {"MOLT-4 leukemia": {"tested_on": "MOLT-4 leukemia"}, "A549 NSCLC": {"tested_on": "A549 NSCLC"}, "SK-MEL-5 melanoma": {"tested_on": "SK-MEL-5 melanoma"}, "SNB-19 CNS": {"tested_on": "SNB-19 CNS"}, "CCRF-CEM leukemia": {"tested_on": "CCRF-CEM leukemia"}, "SF-295 CNS": {"tested_on": "SF-295 CNS"}, "ACHN renal": {"tested_on": "ACHN renal"}, "MALME-3M melanoma": {"tested_on": "MALME-3M melanoma"}, "SK-MEL-2 melanoma": {"tested_on": "SK-MEL-2 melanoma"}, "HT29 colon": {"tested_on": "HT29 colon"}, "OVCAR-3 ovarian": {"tested_on": "OVCAR-3 ovarian"}, "HOP-62 NSCLC": {"tested_on": "HOP-62 NSCLC"}, "MCF7 breast": {"tested_on": "MCF7 breast"}, "COLO 205 colon": {"tested_on": "COLO 205 colon"}, "SF-268 CNS": {"tested_on": "SF-268 CNS"}, "A498 renal": {"tested_on": "A498 renal"}, "HOP-92 NSCLC": {"tested_on": "HOP-92 NSCLC"}, "NCI-H460 lung": {"tested_on": "NCI-H460 lung"}, "TK-10 renal": {"tested_on": "TK-10 renal"}, "HS 578T breast": {"tested_on": "HS 578T breast"}, "T-47D breast": {"tested_on": "T-47D breast"}, "OVCAR-5 ovarian": {"tested_on": "OVCAR-5 ovarian"}, "RPMI-8226 leukemia": {"tested_on": "RPMI-8226 leukemia"}, "SF-539 CNS": {"tested_on": "SF-539 CNS"}, "SNB-75 CNS": {"tested_on": "SNB-75 CNS"}, "M14 melanoma": {"tested_on": "M14 melanoma"}, "SW-620 colon": {"tested_on": "SW-620 colon"}, "RXF 393 renal": {"tested_on": "RXF 393 renal"}, "CAKI-1 renal": {"tested_on": "CAKI-1 renal"}}, "note": "Values joined by “and” are separate entries in the source; they are usually repeats but may differ in a detail not shown here. Identical values can stand only once.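 1) Cells in 96-well plates. 2) Compound, 48 h, 5 concentrations. 3) Linear interpolation between surrounding doses. 4) Unreached endpoint = highest concentration. The concentration for 50% growth inhibition is given as GI50. TGI marks complete inhibition of growth.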"}
{"smiles": "C1=C/COCc2cc(ccc2OCCN2CCCC2)Nc2nccc(n2)-c2cccc(c2)COC/1", "values": [{"measurement": "GI50", "setting": "MOLT-4 leukemia", "value": "369 nM and 689 nM"}, {"measurement": "TGI", "setting": "MOLT-4 leukemia", "value": "2540 nM and 4090 nM"}, {"measurement": "GI50", "setting": "A549 NSCLC", "value": "1060 nM and 1140 nM"}, {"measurement": "TGI", "setting": "A549 NSCLC", "value": "3000 nM and 3380 nM"}, {"measurement": "GI50", "setting": "SK-MEL-5 melanoma", "value": 672, "unit": "nM"}, {"measurement": "TGI", "setting": "SK-MEL-5 melanoma", "value": 1820, "unit": "nM"}, {"measurement": "GI50", "setting": "SNB-19 CNS", "value": "1340 nM and 1850 nM"}, {"measurement": "TGI", "setting": "SNB-19 CNS", "value": "5600 nM and 8470 nM"}, {"measurement": "GI50", "setting": "CCRF-CEM leukemia", "value": "652 nM and 1080 nM"}, {"measurement": "TGI", "setting": "CCRF-CEM leukemia", "value": "11500 nM and 6620 nM"}, {"measurement": "GI50", "setting": "SF-295 CNS", "value": "1580 nM and 1980 nM"}, {"measurement": "TGI", "setting": "SF-295 CNS", "value": "3340 nM and 4290 nM"}, {"measurement": "GI50", "setting": "ACHN renal", "value": "394 nM and 486 nM"}, {"measurement": "TGI", "setting": "ACHN renal", "value": "2760 nM and 3680 nM"}, {"measurement": "GI50", "setting": "MALME-3M melanoma", "value": "680 nM and 1210 nM"}, {"measurement": "TGI", "setting": "MALME-3M melanoma", "value": "2190 nM and 2890 nM"}, {"measurement": "GI50", "setting": "SK-MEL-2 melanoma", "value": "1550 nM and 1430 nM"}, {"measurement": "TGI", "setting": "SK-MEL-2 melanoma", "value": "3570 nM and 3220 nM"}, {"measurement": "GI50", "setting": "HT29 colon", "value": "481 nM and 542 nM"}, {"measurement": "TGI", "setting": "HT29 colon", "value": "2450 nM and 2640 nM"}, {"measurement": "GI50", "setting": "OVCAR-3 ovarian", "value": "849 nM and 1310 nM"}, {"measurement": "TGI", "setting": "OVCAR-3 ovarian", "value": "2850 nM and 2890 nM"}, {"measurement": "GI50", "setting": "HOP-62 NSCLC", "value": "1110 nM and 1360 nM"}, {"measurement": "TGI", "setting": "HOP-62 NSCLC", "value": "4390 nM and 3230 nM"}, {"measurement": "GI50", "setting": "MCF7 breast", "value": 353, "unit": "nM"}, {"measurement": "TGI", "setting": "MCF7 breast", "value": 1540, "unit": "nM"}, {"measurement": "GI50", "setting": "COLO 205 colon", "value": "443 nM and 643 nM"}, {"measurement": "TGI", "setting": "COLO 205 colon", "value": "1840 nM and 1850 nM"}, {"measurement": "GI50", "setting": "SF-268 CNS", "value": "648 nM and 1050 nM"}, {"measurement": "TGI", "setting": "SF-268 CNS", "value": "2560 nM and 2820 nM"}, {"measurement": "GI50", "setting": "A498 renal", "value": "1250 nM and 1310 nM"}, {"measurement": "TGI", "setting": "A498 renal", "value": "2700 nM and 3980 nM"}, {"measurement": "GI50", "setting": "HOP-92 NSCLC", "value": "1200 nM and 624 nM"}, {"measurement": "TGI", "setting": "HOP-92 NSCLC", "value": "6380 nM and 3150 nM"}, {"measurement": "GI50", "setting": "NCI-H460 lung", "value": "847 nM and 1080 nM"}, {"measurement": "TGI", "setting": "NCI-H460 lung", "value": "2750 nM and 3060 nM"}, {"measurement": "GI50", "setting": "TK-10 renal", "value": "1580 nM and 1090 nM"}, {"measurement": "TGI", "setting": "TK-10 renal", "value": "3670 nM and 3840 nM"}, {"measurement": "GI50", "setting": "HS 578T breast", "value": "1290 nM and 1680 nM"}, {"measurement": "TGI", "setting": "HS 578T breast", "value": "4470 nM and 5560 nM"}, {"measurement": "GI50", "setting": "T-47D breast", "value": "509 nM and 949 nM"}, {"measurement": "TGI", "setting": "T-47D breast", "value": "3030 nM and 3780 nM"}, {"measurement": "GI50", "setting": "OVCAR-5 ovarian", "value": "356 nM and 717 nM"}, {"measurement": "TGI", "setting": "OVCAR-5 ovarian", "value": "2360 nM and 2780 nM"}, {"measurement": "GI50", "setting": "RPMI-8226 leukemia", "value": "1370 nM and 1910 nM"}, {"measurement": "TGI", "setting": "RPMI-8226 leukemia", "value": "4640 nM and 5840 nM"}, {"measurement": "GI50", "setting": "SF-539 CNS", "value": "1470 nM and 1800 nM"}, {"measurement": "TGI", "setting": "SF-539 CNS", "value": "3000 nM and 3320 nM"}, {"measurement": "GI50", "setting": "SNB-75 CNS", "value": "1080 nM and 1140 nM"}, {"measurement": "TGI", "setting": "SNB-75 CNS", "value": "2440 nM and 2600 nM"}, {"measurement": "GI50", "setting": "M14 melanoma", "value": "669 nM and 997 nM"}, {"measurement": "TGI", "setting": "M14 melanoma", "value": "2460 nM and 2430 nM"}, {"measurement": "GI50", "setting": "SW-620 colon", "value": "489 nM and 927 nM"}, {"measurement": "TGI", "setting": "SW-620 colon", "value": "2590 nM and 3690 nM"}, {"measurement": "GI50", "setting": "RXF 393 renal", "value": "278 nM and 339 nM"}, {"measurement": "TGI", "setting": "RXF 393 renal", "value": "784 nM and 1120 nM"}, {"measurement": "GI50", "setting": "CAKI-1 renal", "value": "443 nM and 463 nM"}]}
